According to ChEMBL document CHEMBL4842343, “1,10-Seco-Eudesmane sesquiterpenoids as a new type of anti-neuroinflammatory agents by suppressing TLR4/NF-κB/MAPK pathways” (Eur J Med Chem, 2021):
Active and inactive are the calls of the source. The rule behind the calls is not given here.

Key:
[1] = Inhibition of iNOS expression in LPS-stimulated mouse BV-2 cells at 10 uM measured after 24 hrs by western blot analysis relative to control; type: functional
BV-2 [2] = assay: Inhibition of TNF-alpha production in LPS stimulated mouse BV-2 cells measured after 24 hrs by ELISA; type: functional, cell-based; details: dose 1-10 µM
BV-2 [3] = assay: Inhibition of COX-1 expression in LPS-stimulated mouse BV-2 cells at 1 to 10 uM measured after 24 hrs by western blot analysis; type: functional, cell-based; details: dose 1-10 µM
BV-2 [4] = assay: Antineuroinflammatory activity in LPS- stimulated mouse BV-2 cells assessed as fold increase in HO-1 expression at 10 uM measured after 24 hrs by immunoblotting analysis relative to control; type: functional
BV-2 [5] = assay: Inhibition of COX-2 expression in mouse BV-2 cells at 10 uM measured after 24 hrs by western blot analysis; type: functional, cell-based
[6] = Effective permeability of the compound in PBS/EtOH buffer (9:1) at […] after 10 hrs by HPLC-UV based PAMPA-BBB assay; type: ADME; details: read-out: permeability
BV-2 [7] = assay: Inhibition of PGE2 production in mouse BV-2 cells at 10 uM measured after 24 hrs by ELISA; type: functional, cell-based
[8] = Potency indes, ratio of OABC to test compound for Inhibition of iNOS expression in LPS-stimulated mouse BV-2 cells at 10 uM measured after 24 hrs by western blot analysis; type: functional
BV-2 [9] = assay: Inhibition of TNF-alpha production in mouse BV-2 cells at 10 uM measured after 24 hrs by ELISA; type: functional, cell-based
[10] = Inhibition of LPS-induced NO production in mouse BV-2 cells incubated for 24 hrs by Griess reagent based assay; type: functional, cell-based; details: Mus musculus, BV-2, 24 h; read-out: EC50
BV-2 [11] = assay: Inhibition of COX-2 expression in LPS-stimulated mouse BV-2 cells measured after 24 hrs by western blot analysis; type: functional, cell-based
BV-2 [12] = assay: Inhibition of COX-1 expression in mouse BV-2 cells at 10 uM measured after 24 hrs by western blot analysis; type: functional, cell-based
BV-2 [13] = assay: Inhibition of TLR4/NF-kappaB signalling pathway in LPS- stimulated mouse BV-2 cells assessed as reduction in IRAK1 expression measured after 24 hrs by western blot analysis; type: cell-based; details: dose 0.3-10 µM
BV-2 [14] = assay: Inhibition of NF-kappaB p65 translocation in LPS-stimulated mouse BV-2 cells assessed as distribution of NF-kappaB p65 in nucleus and cytoplasm at 3 uM pretreated for 1 hr followed by LPS stimulation measured after 24 hrs by DAPI staining based immunofluorescence assay; type: cell-based; details: time 25.0 hrs
BV-2 [15] = assay: Antineuroinflammatory activity in LPS- stimulated mouse BV-2 cells assessed as conversion of microglia from M1 to M2 phenotype macrophages by measuring arginase-1 level at 10 uM measured after 24 hrs by ELISA; type: functional, cell-based
BV-2 [16] = assay: Antineuroinflammatory activity in LPS- stimulated mouse BV-2 cells assessed as upregulation of HO-1 expression measured after 24 hrs by immunoblotting analysis; type: functional, cell-based; details: dose 1-10 µM
BV-2 [17] = assay: Inhibition of ERK phosphorylation in LPS-stimulated mouse BV-2 cells at 0.3 to 10 uM measured after 2 hrs by western blot analysis; type: cell-based; details: dose 0.3-10 µM
BV-2 [18] = assay: Inhibition of PGE2 production in LPS- stimulated mouse BV-2 cells measured after 24 hrs by ELISA; type: functional, cell-based; details: dose 1-10 µM
[19] = Inhibition of iNOS expression in mouse BV-2 cells at 10 uM measured after 24 hrs by western blot analysis relative to control; type: functional
BV-2 [20] = assay: Inhibition of iNOS expression in LPS-stimulated mouse BV-2 cells measured after 24 hrs by western blot analysis; type: functional, cell-based; details: dose 1-10 µM
BV-2 [21] = assay: Inhibition of TLR4/NF-kappaB signalling pathway in mouse BV-2 cells assessed as increase in CD14 cell surface expression at 10 uM pretreated for 1 hr and measured after 24 hrs by flow cytometry analysis (Rvb= 3.8%); type: cell-based; set-up: scale not given: the % may be the effect or the level left; details: time 25.0 hrs
BV-2 [22] = assay: Inhibition of TLR4/NF-kappaB signalling pathway in LPS- stimulated mouse BV-2 cells assessed as reduction in MyD88 expression at 0.3 to 10 uM measured after 24 hrs by western blot analysis; type: cell-based; details: dose 0.3-10 µM
BV-2 [23] = assay: Cytotoxicity against LPS-stimulated mouse BV-2 cells assessed as reduction in cell viability at 10 uM measured after 24 hrs by MTT assay relative to control; type: cell-based; details: bv-2, 24 h
BV-2 [24] = assay: Potency indes, ratio of OABC to test compound for inhibition of COX-2 expression in LPS-stimulated mouse BV-2 cells at 10 uM measured after 24 hrs by western blot analysis; type: functional
[25] = Potency index, ratio of OABC EC50 to test compound EC50 for inhibition of LPS-induced NO production in mouse BV-2 cells incubated for 24 hrs by Griess reagent based assay; type: functional
BV-2 [26] = assay: Inhibition of TLR4/NF-kappaB signalling pathway in LPS-stimulated mouse BV-2 cells assessed as decrease in CD14 cell surface expression at 10 uM pretreated for 1 hr followed by LPS stimulation and measured after 24 hrs by […] (reference value: 27.2%); type: cell-based; set-up: scale not given: the % may be the effect or the level left; details: time 25.0 hrs
[27] = biological target: MAP kinase p38 (Mus musculus) (UniProt P47811+O08911+Q9WUI1+Q9Z1B7); assay: Inhibition of p38 MAPK phosphorylation in LPS-stimulated mouse BV-2 cells measured after 2 hrs by western blot analysis; type: cell-based; details: dose 0.3-10 µM
BV-2 [28] = assay: Antineuroinflammatory activity in LPS- stimulated mouse BV-2 cells assessed as conversion of microglia from M1 to M2 phenotype macrophages by measuring IL-10 production at 1 uM measured after 24 hrs by ELISA; type: functional, cell-based

SMILES: C=C1C(=O)O[C@@H]2CC(CBr)=C([C@@H](C)CCCOC(C)=O)[C@@H](OC(C)=O)[C@H]12
- inhibition at 10 µM [1]: 11.2%
- inhibition (BV-2 [2]): Dose-Dependent Effect
- inhibition (BV-2 [3]): inactive
- fold change (FC) (BV-2 [4]): 2.8
- inhibition (BV-2 [5]): Active
- Papp at 10 h [6]: 6.5 ×10⁻⁶ cm/s
- inhibition (BV-2 [7]): inactive
- fold change (FC) [8]: 4
- inhibition (BV-2 [9]): inactive
- EC50 [10]: 700 nM
- inhibition (BV-2 [11]): Dose-Dependent Effect
- inhibition (BV-2 [12]): inactive
- inhibition (BV-2 [13]): Dose-Dependent Effect
- inhibition (BV-2 [14]): Active
- Activity (BV-2 [15]): Active
- Activity (BV-2 [16]): Dose-Dependent Effect
- inhibition (BV-2 [17]): inactive
- inhibition (BV-2 [18]): Dose-Dependent Effect
- inhibition at 10 µM [19]: 12.2%
- inhibition (BV-2 [20]): Dose-Dependent Effect
- Activity (BV-2 [21]): 10.6%
- inhibition (BV-2 [22]): inactive
- Activity (BV-2 [23]): 90.6%
- fold change (FC) (BV-2 [24]): 4
- Ratio EC50 [25]: 6
- Activity (BV-2 [26]): 9.9%
- Activity [27]: Dose-Dependent Effect
- Activity (BV-2 [28]): Active
